# Data published in the NIST ThermoML archive (doi:10.1021/je4003916).
# Numbers after ± are expanded uncertainties.
# Experiment: refractive index (Na D-line) (dimensionless); xn = mol fraction of the nth substance listed
# Conditions: 101 kPa, Liquid, Dipping refractometry (monochromatic)
smiles,measurement,setting,value
C1CCOC1 [tetrahydrofuran] + CCCCO,refractive index,"288.15 K, x1 = 0.1001",1.402 ± 0.0002
same,refractive index,"288.15 K, x1 = 0.2003",1.4028 ± 0.0002
same,refractive index,"288.15 K, x1 = 0.3",1.4036 ± 0.0002
same,refractive index,"288.15 K, x1 = 0.4003",1.4043 ± 0.0002
same,refractive index,"288.15 K, x1 = 0.5",1.4051 ± 0.0002
same,refractive index,"288.15 K, x1 = 0.6001",1.4059 ± 0.0002
same,refractive index,"288.15 K, x1 = 0.7003",1.4068 ± 0.0002
same,refractive index,"288.15 K, x1 = 0.8006",1.4077 ± 0.0002
same,refractive index,"288.15 K, x1 = 0.9002",1.4087 ± 0.0002
same,refractive index,"288.15 K, x1 = 1",1.4096 ± 0.0002
same,refractive index,"293.15 K, x1 = 0.1001",1.3999 ± 0.0002
same,refractive index,"293.15 K, x1 = 0.2003",1.4006 ± 0.0002
same,refractive index,"293.15 K, x1 = 0.3",1.4013 ± 0.0002
same,refractive index,"293.15 K, x1 = 0.4003",1.4021 ± 0.0002
same,refractive index,"293.15 K, x1 = 0.5",1.4028 ± 0.0002
same,refractive index,"293.15 K, x1 = 0.6001",1.4035 ± 0.0002
same,refractive index,"293.15 K, x1 = 0.7003",1.4044 ± 0.0002
same,refractive index,"293.15 K, x1 = 0.8006",1.4052 ± 0.0002
same,refractive index,"293.15 K, x1 = 0.9002",1.4061 ± 0.0002
same,refractive index,"293.15 K, x1 = 1",1.407 ± 0.0002
same,refractive index,"298.15 K, x1 = 0.1001",1.3978 ± 0.0002
same,refractive index,"298.15 K, x1 = 0.2003",1.3985 ± 0.0002
same,refractive index,"298.15 K, x1 = 0.3",1.3991 ± 0.0002
same,refractive index,"298.15 K, x1 = 0.4003",1.3998 ± 0.0002
same,refractive index,"298.15 K, x1 = 0.5",1.4004 ± 0.0002
same,refractive index,"298.15 K, x1 = 0.6001",1.4011 ± 0.0002
same,refractive index,"298.15 K, x1 = 0.7003",1.4019 ± 0.0002
same,refractive index,"298.15 K, x1 = 0.8006",1.4027 ± 0.0002
same,refractive index,"298.15 K, x1 = 0.9002",1.4035 ± 0.0002
same,refractive index,"298.15 K, x1 = 1",1.4043 ± 0.0002
same,refractive index,"303.15 K, x1 = 0.1001",1.3957 ± 0.0002
same,refractive index,"303.15 K, x1 = 0.2003",1.3963 ± 0.0002
same,refractive index,"303.15 K, x1 = 0.3",1.3969 ± 0.0002
same,refractive index,"303.15 K, x1 = 0.4003",1.3974 ± 0.0002
same,refractive index,"303.15 K, x1 = 0.5",1.398 ± 0.0002
same,refractive index,"303.15 K, x1 = 0.6001",1.3987 ± 0.0002
same,refractive index,"303.15 K, x1 = 0.7003",1.3994 ± 0.0002
same,refractive index,"303.15 K, x1 = 0.8006",1.4001 ± 0.0002
same,refractive index,"303.15 K, x1 = 0.9002",1.4009 ± 0.0002
same,refractive index,"303.15 K, x1 = 1",1.4016 ± 0.0002
same,refractive index,"308.15 K, x1 = 0.1001",1.3936 ± 0.0002
same,refractive index,"308.15 K, x1 = 0.2003",1.3941 ± 0.0002
same,refractive index,"308.15 K, x1 = 0.3",1.3946 ± 0.0002
same,refractive index,"308.15 K, x1 = 0.4003",1.3951 ± 0.0002
same,refractive index,"308.15 K, x1 = 0.5",1.3957 ± 0.0002
same,refractive index,"308.15 K, x1 = 0.6001",1.3962 ± 0.0002
same,refractive index,"308.15 K, x1 = 0.7003",1.3969 ± 0.0002
same,refractive index,"308.15 K, x1 = 0.8006",1.3975 ± 0.0002
same,refractive index,"308.15 K, x1 = 0.9002",1.3983 ± 0.0002
same,refractive index,"308.15 K, x1 = 1",1.399 ± 0.0002
same,refractive index,"313.15 K, x1 = 0.1001",1.3914 ± 0.0002
same,refractive index,"313.15 K, x1 = 0.2003",1.3919 ± 0.0002
same,refractive index,"313.15 K, x1 = 0.3",1.3923 ± 0.0002
same,refractive index,"313.15 K, x1 = 0.4003",1.3928 ± 0.0002
same,refractive index,"313.15 K, x1 = 0.5",1.3933 ± 0.0002
same,refractive index,"313.15 K, x1 = 0.6001",1.3938 ± 0.0002
same,refractive index,"313.15 K, x1 = 0.7003",1.3943 ± 0.0002
same,refractive index,"313.15 K, x1 = 0.8006",1.3949 ± 0.0002
same,refractive index,"313.15 K, x1 = 0.9002",1.3956 ± 0.0002
same,refractive index,"313.15 K, x1 = 1",1.3963 ± 0.0002
same,refractive index,"318.15 K, x1 = 0.1001",1.3893 ± 0.0002
same,refractive index,"318.15 K, x1 = 0.2003",1.3897 ± 0.0002
same,refractive index,"318.15 K, x1 = 0.3",1.3901 ± 0.0002
same,refractive index,"318.15 K, x1 = 0.4003",1.3905 ± 0.0002
same,refractive index,"318.15 K, x1 = 0.5",1.3909 ± 0.0002
same,refractive index,"318.15 K, x1 = 0.6001",1.3913 ± 0.0002
same,refractive index,"318.15 K, x1 = 0.7003",1.3918 ± 0.0002
same,refractive index,"318.15 K, x1 = 0.8006",1.3923 ± 0.0002
same,refractive index,"318.15 K, x1 = 0.9002",1.3929 ± 0.0002
same,refractive index,"318.15 K, x1 = 1",1.3936 ± 0.0002
same,refractive index,"323.15 K, x1 = 0.1001",1.3871 ± 0.0002
same,refractive index,"323.15 K, x1 = 0.2003",1.3874 ± 0.0002
same,refractive index,"323.15 K, x1 = 0.3",1.3878 ± 0.0002
same,refractive index,"323.15 K, x1 = 0.4003",1.3881 ± 0.0002
same,refractive index,"323.15 K, x1 = 0.5",1.3885 ± 0.0002
same,refractive index,"323.15 K, x1 = 0.6001",1.3888 ± 0.0002
same,refractive index,"323.15 K, x1 = 0.7003",1.3893 ± 0.0002
same,refractive index,"323.15 K, x1 = 0.8006",1.3897 ± 0.0002
same,refractive index,"323.15 K, x1 = 0.9002",1.3903 ± 0.0002
same,refractive index,"323.15 K, x1 = 1",1.3909 ± 0.0002
